This series can be described thus: Human HepG2 cell viability assay in 384 well format. It is filed as toxicity, cell-based. More on the design: dose 125 nL, time 70.5 hour; concentration not given beside the values. Particulars: HepG2 cells, read-out: Inhibition.

As to `c1cc(CN2CCC(c3ccnc4nccn34)C2)ccn1` (stereo unspecified), the cytotoxicity at 70.5 h was -1.62%.

`CO[C@H]1C[C@@H]2CN(C(=O)c3ccc(C)s3)C[C@@H]2C1`: the cytotoxicity at 70.5 h was -4.22%.

With `NC(=O)c1cnn2c(C3CCCN(C4CCOCC4)C3)ccnc12` (stereo unspecified), the cytotoxicity at 70.5 h was -0.336%. To `NC(=O)c1cnn2c(C3CCN(CCO)CC3)ccnc12` belongs -3.75%. To `Cc1cc(N(C)C)cc(C2CCN(S(=O)(=O)c3cccs3)C2)n1` (stereo unspecified) belongs 14.4%. The figure for `Cc1cc(N(C)C)cc(C2CCN(S(=O)(=O)c3cccnc3)C2)n1` (stereo unspecified) is 1.07%; for `Cn1ncc2ccc(C3CCCN(Cc4ccsc4)C3)nc21` (stereo unspecified) it is 7.16%. As for `Nc1nc(N)c2c(n1)OC1(CCN(C(=O)CC3CCNCC3)CC1)C2`, the cytotoxicity at 70.5 h is 8.24%. On to `Nc1nc(N)c2c(n1)OC1(CCN(C(=O)CC3CCCNC3)CC1)C2` (stereo unspecified), for which the cytotoxicity at 70.5 h was found to be 1.11%. For the compound `CC1(c2[nH]ncc2C(N)=O)CCN(c2ncccn2)CC1`, the cytotoxicity at 70.5 h stood at 17.1%. The figure for `COc1ccc(CN(C)[C@@H]2CN(S(=O)(=O)C(C)C)C[C@H]2O)cc1` is -2.64%; for `CNc1cncc(C2CCCN2C(=O)CCn2ccnc2C(C)C)n1` (stereo unspecified) it is -3%. The figure for `CCS(=O)(=O)N1C[C@@H](O)[C@H](N(C)Cc2ccc(F)cc2)C1` is 0.693%; for `CN(Cc1ccc(F)cc1)[C@@H]1CN(S(=O)(=O)N(C)C)C[C@H]1O` it is -0.678%. The figure for `Cn1ncc2ccc(C3CCCN(Cc4cccs4)C3)nc21` (stereo unspecified) is -0.364%; for `Cc1c(S(=O)(=O)N2CCCCC2c2nnc(-c3cccs3)o2)cnn1C` (stereo unspecified) it is -2.57%; for `COCC(=O)N1CCCCC1c1nc(N(C)C)ncc1-c1cc(C)no1` (stereo unspecified) it is 21.1%. On to `CC1(Cc2ccc(Cl)cc2)Cc2cc(CCC(=O)O)ccc2O1` (stereo unspecified), for which the cytotoxicity at 70.5 h was -6.16%. As for `CC(C)N1CCCC(CCCc2ccccn2)(C(=O)O)C1` (stereo unspecified), the cytotoxicity at 70.5 h was -14.7%. To `NC(=O)C1(c2cnccn2)CCCN1Cc1cc2ccccc2o1` (stereo unspecified) belongs -9.2%. The figure for `COCC(=O)N1CCCC1c1ccnc(Nc2cnccn2)n1` (stereo unspecified) is -7.05%; for `CN(Cc1ccc(F)cc1)CC1(O)CCN(C(=O)c2ccccc2)C1` (stereo unspecified) it is -2.54%; for `CNc1cncc(C2CCCN2Cc2ccccc2OCC(=O)O)n1` (stereo unspecified) it is -8.8%.

As for `Fc1ccc(CN2CCC(c3nccnc3-n3ccnc3)CC2)cc1`, the cytotoxicity at 70.5 h stood at 2.75%. The figure for `NCc1cnn(-c2ccccc2C(=O)NCCCn2ccnc2)c1` is -6.34%; for `Nc1nc(C2CCN(C(=O)c3cncs3)CC2)cs1` it is -2.63%; for `COc1ccccc1C(=O)N1CC(Cc2nccc3ccn(C)c23)C1` it is -0.41%.

As to `Oc1nc(N2CCOCC2)nc2c1CCN(Cc1cccnc1)CC2`, the cytotoxicity at 70.5 h is -1.7%. The figure for `Cc1cc(C)cc(-c2ccc(CC3(C(=O)O)CCOCC3)cc2)c1` is 31.5%. With `CNc1cncc(C2CCCN(S(C)(=O)=O)C2)n1` (stereo unspecified), the cytotoxicity at 70.5 h amounted to 0.632%. `CN1CCCC(Cc2ccnc3ccncc23)CC1` (stereo unspecified): the cytotoxicity at 70.5 h stood at 34.2%. For the compound `CC1=NOC2(CCN(Cc3c[nH]c4ccccc34)CC2)C1`, the cytotoxicity at 70.5 h was -9.21%. The figure for `CC(C)CCN1CCC2(CC1)NCc1ccccc1NC2=O` is -7.94%; for `O=C1Nc2ccccc2CNC12CCN(CC1CC1)CC2` it is -9.09%; for `CC(C)NC(=O)N1CCn2c(nnc2C2CCCN2)C1` (stereo unspecified) it is -9.64%. To `O=C(Nc1ccccc1)N1CCn2c(nnc2C2CCNCC2)C1` belongs -9.29%; to `CC(C)NC(=O)c1cc(-c2ccc(S(C)(=O)=O)cc2)c2cnn(C)c2n1`, -0.443%; to `CC1(C(=O)NCc2cccc(C(F)(F)F)c2)CCOCC1`, -5.33%. Regarding `CC1(C(=O)NCc2ccsc2)CCOCC1`, the cytotoxicity at 70.5 h was -8.16%. With `CC1(C(=O)NCCc2ccc(F)cc2)CCOCC1`, the cytotoxicity at 70.5 h was -7.61%. For the compound `O=C(c1ccc(Cl)cc1)N1CCn2c(nn(-c3cccc(Cl)c3)c2=O)C1`, the cytotoxicity at 70.5 h is -6.26%. To `Cc1ccc(-n2nc3n(c2=O)CCN(C(=O)c2ccc(Cl)cc2)C3)cc1` belongs -10.2%. `CC(C)NC(=O)N1CCC2(CC1)CN(C(=O)NC(C)C)CCO2`: the cytotoxicity at 70.5 h was -10.3%. In the case of `O=C(C1CCCC1)N1CC2(CCNC2)OCc2ccccc21` (stereo unspecified), the cytotoxicity at 70.5 h was -9.78%.

Consider `O=C(c1ccccc1)N1CC2(CCNC2)OCc2ccccc21` (stereo unspecified), for which the cytotoxicity at 70.5 h was -9.98%. To `O=C(NC1CC1)C1CCc2nnc(-c3cccnc3)n21` (stereo unspecified) belongs -7.6%; to `COc1ccccc1-c1nc(C(=O)N2CCOCC2)n2ccncc12`, -9.1%; to `Cn1nc(C2CCCN2)c2c(C(=O)NC3CC3)cc(C3CC3)nc21` (stereo unspecified), 20%.

On to `Cn1nc(C2CCCNC2)c2c(C(=O)NC3CC3)cc(C3CC3)nc21` (stereo unspecified), for which the cytotoxicity at 70.5 h was determined as 13.4%. The figure for `CS(=O)(=O)N1CC2(CCCN2Cc2ccc(Cl)cc2)Cc2ccccc21` (stereo unspecified) is 7.7%.

For the compound `CC(=O)N1CC2(CCN(Cc3ccc(Cl)cc3)C2)Cc2ccccc21` (stereo unspecified), the cytotoxicity at 70.5 h was 5.14%. To `O=C(NCc1nnc2n1C(C(=O)NC1CC1)CC2)c1ccc(Cl)cc1Cl` (stereo unspecified) belongs 4.24%; to `O=S1(=O)NC2(CCCN(CCc3ccccc3)C2)COc2ccccc21` (stereo unspecified), 0.68%.

In the case of `CC(=O)N1CCN(c2ccc(Cl)nn2)C(=O)C1`, the cytotoxicity at 70.5 h was -7.52%. `CC(C)NC(=O)N1CCN(c2ccc(Cl)nn2)C(=O)C1`: the cytotoxicity at 70.5 h was -4.88%. For `O=C(N1CCCC1)N1CCN(c2ccc(Cl)nn2)C(=O)C1`, the cytotoxicity at 70.5 h was -7.98%. Take `Cc1ccc(CN2CCCC23Cc2ccccc2CNC3=O)cc1` (stereo unspecified): the cytotoxicity at 70.5 h is 21.9%. For the compound `CS(=O)(=O)N1Cc2ccccc2CC2(CCN(Cc3ccccc3)C2)C1` (stereo unspecified), the cytotoxicity at 70.5 h is -9.03%. To `CS(=O)(=O)N1CC2(CCN(Cc3ccccn3)C2)Cc2ccccc21` (stereo unspecified) belongs -8%. The figure for `CS(=O)(=O)N1CC2(CCN(CC3CC3)C2)Cc2ccccc21` (stereo unspecified) is -6.8%; for `CS(=O)(=O)N1CC2(CCN(C3CCCCC3)CC2)Cc2ccccc21` it is -7.63%. As for `O=C1Nc2ccccc2CN(C/C=C/c2ccccc2)C12CCNC2` (stereo unspecified), the cytotoxicity at 70.5 h came to 2.42%. To `CCCN1Cc2ccccc2NC(=O)C12CCNC2` (stereo unspecified) belongs -1.87%. Consider `O=C1NCc2ccccc2CC12CCN(Cc1ccccc1Cl)CC2`, for which the cytotoxicity at 70.5 h was -3.39%. The figure for `COc1ccccc1CN1CCCC2(Cc3ccccc3CNC2=O)C1` (stereo unspecified) is -1.54%.

`O=C(O)c1ccccc1CN1CCC2(Cc3ccccc3CNC2=O)C1` (stereo unspecified): the cytotoxicity at 70.5 h was -5.35%. In the case of `O=C1NCc2ccccc2CC12CCCN(CCCc1ccccc1)C2` (stereo unspecified), the cytotoxicity at 70.5 h was -3.38%. The figure for `Cc1cccc(CN2CCCC3(Cc4ccccc4CNC3=O)C2)n1` (stereo unspecified) is -5.77%; for `Cn1nc(C2CCNC2)c2c(C(=O)NCC(F)(F)F)cc(C3CC3)nc21` (stereo unspecified) it is -7.49%.

On to `c1cnc2nc(C3CCNCC3)[nH]c2c1`, for which the cytotoxicity at 70.5 h was -11.9%. The figure for `CNCC(=O)N1CCC(c2ccnc(Nc3ccc(C)cn3)n2)C1` (stereo unspecified) is -1.4%.

The record behind these values is ChEMBL document CHEMBL3507680, “University of Dundee, Gates Library screen for HepG2 cell viability”.
